Experimental data from article PMC12737022, “Evaluations of Sex Differences in Dosimetry in Rats Following Perfluorohexanesulfonamide (PFHxSA) Oral Exposure” (Toxics, 2025).
Where “and” joins values, the source holds several entries; their conditions need not be identical. Identical values can stand only once. Like-named read-outs stand apart in the source and are kept apart here.

Columns and labels:
[1] = Ultracentrifugation plasma protein binding assay, rat plasma; format: in vitro ADME; details: for fraction unbound at 1 h, 10 µM: both sexes, SD
Protocol: Human and rat plasma were evaluated for plasma protein binding of PFHxSA and PFHxS using ultracentrifugation. Data generated in human plasma were obtained from an earlier study; for this study, data were generated in rat plasma following the same protocol as described by Smeltz et al.. SD rat plasma (pooled, mixed sex) was obtained from a commercial vendor (BioIVT, Westbury, NY, USA). Briefly, PFHxSA and PFHxS were added to the plasma to achieve a final assay concentration of 10 µM. Following a 1 h 37 °C incubation, 1 mL aliquots from each plasma solution were drawn in triplicate and transferred to polycarbonate ultracentrifuge tubes. These samples underwent ultracentrifugation (Beckman OptimaMax; Beckman Coulter Inc., Indianapolis, IN, USA) at 850,000× g for 4 h at 37 °C; after completion, the aqueous fraction (AF) was collected by transferring the supernatant to a new tube. Two sets of samples of the original PFAS-spiked whole plasma were also collected after a 1 h or a 5 h incubation at 37 °C. All samples were combined with 3 volumes of ice-cold ACN containing relevant internal standard, vigorously mixed, then centrifuged at 12,000× g for 10 min at 4 °C. Supernatants were collected and then stored at <−70 °C until analysis.
Targeted, quantitative analysis of in vitro hepatocyte metabolic stability and plasma protein binding assay samples was conducted on a Waters (Milford, MA, USA) Xevo-TQS micro ultra-high-performance liquid chromatography tandem mass spectrometry system (UPLC-MS/MS), modified with a PFAS analysis kit. Samples were analyzed in negative ion mode with UniSpray ionization. Samples were analyzed in triplicate, with a reference compound included to evaluate assay performance. A CORTECS T3 column (Waters; 3 mm × 100 mm, 2.7 µm) was used for chromatographic separation with a flow rate of 0.6 mL/min and a temperature of 55 °C. Gradient elution was used with mobile phase A (95:5 H2O/ACN) and mobile phase B (95:5 ACN/H2O), each with 2.5 mM of ammonium acetate added. More details are provided in Smeltz et al..
(§1) Intrinsic hepatic clearance (Clint) and fraction unbound in plasma (fup) were calculated from the experimental point estimate data as described in Dobreniecki et al.. Steady-state concentrations (Css) were derived based on zero-order uptake of an assumed daily dose from the gut (assuming 100% intestinal bioavailability) but considering hepatic clearance and non-metabolic renal clearance. Renal clearance was calculated using the glomerular filtration rate (a species-dependent constant) and the fraction unbound in blood (fub), estimated by adjusting the experimental fup for blood/plasma partitioning. The Css calculations, along with underlying species-specific physiologic scalars, are detailed in SI Texts S6 and S7.

rat hepatocytes = assay: In vitro hepatocyte metabolic stability assay, rat hepatocytes; format: in vitro ADME; details: scaled from hepatocyte clearance at 1 μM
Protocol: In vitro evaluations of PFHxSA and PFHxS hepatocyte metabolic stability were performed in rat hepatocytes, as previously described. Also, human hepatocyte clearance data were obtained from an earlier study. Native PFHxSA was obtained from Alpha Chemistry (purity > 98.4%; Holbrook, NY, USA), and PFHxS was obtained from Ark Pharma Scientific Limited (purity > 95%; Cambridge, UK). Pooled, mixed-sex cryopreserved hepatocyte suspensions were employed in a substrate depletion approach, using a final assay concentration of 1 μM. […]
Targeted, quantitative analysis of in vitro hepatocyte metabolic stability and plasma protein binding assay samples was conducted on a Waters (Milford, MA, USA) Xevo-TQS micro ultra-high-performance liquid chromatography tandem mass spectrometry system (UPLC-MS/MS), modified with a PFAS analysis kit. Samples were analyzed in negative ion mode with UniSpray ionization. Samples were analyzed in triplicate, with a reference compound included to evaluate assay performance. […]
Intrinsic hepatic clearance (Clint) and fraction unbound in plasma (fup) were calculated from the experimental point estimate data as described in Dobreniecki et al.. […] Renal clearance was calculated using the glomerular filtration rate (a species-dependent constant) and the fraction unbound in blood (fub), estimated by adjusting the experimental fup for blood/plasma partitioning. […]

[2] = In vitro-in vivo extrapolation (IVIVE) to estimate Css, rat; details: for Css (steady-state concentration) / CL renal: Rat; for Css (steady-state concentration): IVIVE-derived, assumes 1 mg/kg/day exposure; for CL renal: non-metabolic, GFR x fub, read-out: Clrenal (renal clearance) (converted)
Protocol: as §1, with “S7. […]” for “S7.”
hepatocytes). In equation (C), the scalar 2000 is used to adjust the assay cell number to be consistent with units of 1 million cells in the Clint equation.
Text S7 In Vitro-In Vivo Extrapolation (IVIVE) Calculations
The pharmacokinetic equation used to estimate expected steady-state concentrations (Css) is based on zero-order uptake of a daily dose from the gut (assuming 100% bioavailability) with both nonmetabolic renal clearance (Clrenal) and hepatic clearance (Clhepatic) (Equation D). The chemical input rate (ko) is the product of the intake dosage and the model body weight; this represents the numerator of Equation D. The Clrenal calculation is shown in the first part of the denominator of Equation D; it is the product of the species-dependent glomerular filtration rate (GFR) and the unbound fraction in blood (fub) of the parent compound. The Clhepatic calculation is shown in the second part of the denominator of Equation D; it is the product of the species-dependent liver blood flow constant, the fub of the parent compound, and the experimentally derived intrinsic clearance (shown in Equation C) divided by the sum of these three values. All values used in Equation D are for first-order conditions of metabolism in the […]

human hepatocytes = system: human hepatocytes; design: method as in Crizer et al. [59]; details: ref Crizer et al. [59]; cited from earlier work
[3] = blood (estimated from fup in plasma), Rat, fup adjusted for blood/plasma partitioning, read-out: fub (fraction unbound in blood)
[4] = Rat plasma, 10 µM, ultracentrifugation, read-out: fup (fraction unbound in plasma)

O=S(=O)(O)C(F)(F)C(F)(F)C(F)(F)C(F)(F)C(F)(F)C(F)(F)F [PFHxS, perfluorohexane sulfonic acid]
fraction unbound at 1 h, 10 µM [1, 3]: 0.0014 | fraction unbound at 1 h, 10 µM [1, 4]: 0.0008 | Plasma binding of PFHxS higher than PFHxSA ([1]; rat plasma): 25% | Clhep (hepatic clearance) (rat hepatocytes): 0 L/h | Css (steady-state concentration) [2]: 243 µM | CL renal [2]: 0.00167 mL/min | PFHxS Css higher than PFHxSA Css ([2]; rat): 1.8 fold | Clhep (hepatic clearance) (human hepatocytes): 0 ^2 L/h

NS(=O)(=O)C(F)(F)C(F)(F)C(F)(F)C(F)(F)C(F)(F)C(F)(F)F [PFHxSA, Perfluorohexanesulfonamide]
fraction unbound at 1 h, 10 µM [1, 3]: 0.0018 | fraction unbound at 1 h, 10 µM [1, 4]: 0.001 | Clhep (hepatic clearance) (rat hepatocytes): 0.0000449 L/h | Css (steady-state concentration) [2]: 138 µM | CL renal [2]: 0.00167 mL/min | IVIVE-derived Css higher than in vivo plasma concentration ([2]; rat, 1 mg/kg/day, female and male rat plasma, respectively): 6.5–12.1 fold and 6.5–12 fold | Clhep (hepatic clearance) (human hepatocytes): 0 ^2 L/h
